Assay results as given in patent US11098294B2, “Anti-inflammatory peptides and composition comprising same” (GemVax & KAEL Co., Ltd., priority 2012, dated 2021).

Tests used:
Assay type in all cases: cell-based
COX-2 = assay: Western blot, COX-2 expression inhibition, LPS-stimulated cells
Procedure: (§1) Raw 264.7 macrophage cell (KCBL, 40071) from Korea Cell Bank was maintained in Dulbecco's modified Eagle's medium (DMEM; PAA, Austria) containing 10% fetal bovine serum (FBS; Gibco Laboratories), 100 unit/mL of streptomycin, and penicillin (Gibco Laboratories) at 37° C. with 5% CO2. Raw264.7 cells were seeded into a 96-well plate at a density of 1×10^6 cells/mL and incubated overnight.
(§2) On the following day, the medium was replaced with fresh medium and 5 μg/mL of peptide (obtained as described in Experiment example 1) was added to the cells. After 30 min incubation of cells with the peptide 50 μL of LPS (to a final concentration of 1 μg/mL) was added, and cells were incubated for additional 24 hr. The experimental sample with the induction of inflammatory response was treated with 1 μg/mL mL lipopolysaccharide (LPS; Sigma, USA) and control sample was treated with phosphate buffered saline (PBS; pH 7.2). The supernatant samples from each condition was collected in eppendorf tubes and subjected to further analysis.
(§3) Protein expression level was determined by Western blot analysis. […] The membrane was incubated with ECL (enhanced chemiluminesence) solution (Amersham Life Science Corp., Arlington Heights, Ill., USA), exposed to X-ray, and the level of protein expression was analyzed according to the exposure level shown on the X-ray film.

HMGB1 = assay: Western blot, HMGB1 expression inhibition, LPS-stimulated cells
Procedure: as §1, §2, §3

IL-6 = IL-6 secretion measurement (ELISA) in LPS-challenged RAW 264.7 cells; conditions: RAW 264.7 cell, LPS 1 μg/mL, PEP 1 5 μg/ml, 24 hr
Procedure: as §1, §2
To investigate the effect of PEP1 on inhibiting pro-inflammatory cytokine production RAW 264.7 cell were pre-treated with PEP 1 at a concentration of 5 μg/mL challenged with LPS at a concentration of 1 μg/mL, and cells were further incubated for 24 hr. The supernatant samples containing cell culture medium was collected and analyzed for the cytokine levels using ELISA kits (eBioscience, San Diego).
96 wells plates were coated with 100 μl of capture antibodies (diluted in coating buffer to the concentration recommended by manufacturer's protocol) overnight at 4° C. Then, after washing the plates 5 times, 200 μL of assay diluents was added to each well and incubated for 1 hr at room temperature for blocking. […]
Following incubation with the secondary antibody, the plate was washed five times and incubated with 100 μl of avidin-HRP (BD Bioscience) for 30 min at room temperature. […] The reaction was stopped by adding 50 μl of 2N H2SO4 in each well The optical density at 450 nm was measured using a microplate reader. […]

TNF-α = assay: Western blot, TNF-α expression inhibition, LPS-stimulated cells
Procedure: as §1, §2, §3

nitric oxide (NO) = assay: NO level analysis (Griess reagent) in LPS-stimulated Raw 264.7 cells; conditions: Raw 264.7 cell, LPS 1 μg/mL, PEP 1 0.5 μg/mL
Procedure: as §1
as §2, with “On the following day, the medium was replaced with fresh medium and 5 μg/mL of peptide (obtained as described in Experiment example 1) was added to the cells.” left out
The level of nitric oxide (NO) was measured in Raw 264.7 cell (1×10^6 cell/ml) using Griess reagent system (Promega, USA). Culture medium of 50 μl was added to a 96-well plate and Griess reagent I […] are added in the same amount. After 10 min incubation of cells with the reagents, the optical density at 540 nm was measured within 30 min using a microplate reader (Molecular Devices, USA). The concentration of NO was calculated by using a standard curve (0˜100 μM) of sodium nitrite.

[1] = cells treated with both LPS and Pep1

In the case of EARPALLTSRLRFIPK [PEP 1], the “Cytokine Expression Level (band intensity) % of control COX-2” value (COX-2; LPS 1 μg/ml, PEP 1 5 μg/ml) is reported as 22%, the “decrease of pro-inflammatory cytokine level (COX)” value (COX-2; [1]) is reported as “more than 70%” and the “Cytokine Expression Level (band intensity) % of control HMGB1” value (HMGB1; LPS 1 μg/ml, PEP 1 5 μg/ml) is reported as 30%. For the same sequence, the “decrease of pro-inflammatory cytokine level (HMGB1)” value (HMGB1; [1]) was “more than 70%”, the “cytokine IL-6 production % of control” value (IL-6) was 28% and the “cytokine IL-6 production inhibition %” value (IL-6) was 72%. The “cytokine IL-6 production inhibition %” value (IL-6; listed as PEP-1) was “more than 70%”, the “Cytokine Expression Level (band intensity) % of control TNF-α” value (TNF-α; LPS 1 μg/ml, PEP 1 5 μg/ml) was 25% and the “decrease of pro-inflammatory cytokine level (TNF-α)” value (TNF-α; [1]) was “more than 70%”. The “Decreased NO Expression Level (%)” value (nitric oxide (NO)) was 65%, the “NO Expression Level of control (%)” value (nitric oxide (NO)) was 35% and the “NO Expression Level of control (%)” value (nitric oxide (NO); listed as Pep1) was 65%.
